According to patent US12697326B2, “Methods of treating hepatic encephalopathy” (SALIX PHARMACEUTICALS, INC., priority 2008, dated 2026):

Test system: HE-related hospitalization in subjects with hepatic encephalopathy (HE)
Experiment: Time to first HE-related hospitalization, first study
Assay type: in vivo, human
Conditions: for Cummulative number of events / Number of events / Probability of no HE-related hospitalization: ITT
Excerpt: Time to first HE-related hospitalization was computed as the number of days from the first dose of rifaximin to the first hospitalization for an HE related event. The analysis of time to first HE-related hospitalization was based on the comparison of time to hospitalization between rifaximin and placebo.
FIG. 9 illustrates time to first HE-related hospitalization (e.g., hospitalization directly resulting from HE or hospitalization caused by HE) by treatment group in the ITT population in the first study. Table 19 presents estimates of the proportions of subjects who had their first HE-related hospitalization over the course of the Treatment Period and results of statistical analyses. Subjects who discontinued prior to hospitalization due to HE and prior to completion of the 6-month treatment period were censored at the time of discontinuation. […] This hazard ratio represents a 50% reduction, when compared with placebo, in the risk of hospitalization due to HE during the 6-month treatment period.
Note for FIG. 9, the survival distribution estimate on y-axis represents the proportion of subjects without HE-related hospitalization. Dashed line represents rifaximin group and solid line represents placebo group. Open circles and open triangles represent censored subjects. Subjects who discontinued prior to hospitalization due to HE and prior to completion of the 6-month treatment period were censored at the time of discontinuation. Hepatic encephalopathy-related hospitalization was recorded on the HE-related hospitalization CRF.

[1] = first HE-related hospitalization, Table 4, 550 mg BID, N = 140, Days >=168
[2] = first HE-related hospitalization, Table 4; 550 mg BID; N = 140; Days [0-28)
[3] = first HE-related hospitalization, Table 4, 550 mg BID, N = 140, Days [28-56]
[4] = first HE-related hospitalization, Table 4; 550 mg BID; N = 140; Days [56-84)
[5] = first HE-related hospitalization, Table 4; 550 mg BID; N = 140; Days [84-140)
[6] = first HE-related hospitalization, Table 4; 550 mg BID; N = 140; Days [140-168)
[7] = first HE-related hospitalization, Table 17, 550 mg BID, N = 140, Days >=168
[8] = first HE-related hospitalization, Table 17; 550 mg BID; N = 140; Days [0-28)
[9] = first HE-related hospitalization, Table 17; 550 mg BID; N = 140; Days [28-56)
[10] = first HE-related hospitalization, Table 17; 550 mg BID; N = 140; Days [56-84)
[11] = first HE-related hospitalization, Table 17; 550 mg BID; N = 140; Days [84-140)
[12] = first HE-related hospitalization, Table 17; 550 mg BID; N = 140; Days [140-168)
[13] = first study, first HE-related hospitalization, N = 140, treatment interval 0 to <28 days
[14] = first study, first HE-related hospitalization, N = 140, treatment interval 28 to <56 days
[15] = first study, first HE-related hospitalization, N = 140, treatment interval 56 to <84 days
[16] = first study, first HE-related hospitalization, N = 140, treatment interval 84 to <140 days
[17] = first study, first HE-related hospitalization, N = 140, treatment interval 140 to <168 days
[18] = first study, first HE-related hospitalization, N = 140, treatment interval ≥168 days

SMILES: CO[C@H]1/C=C/O[C@@]2(C)Oc3c(C)c(O)c4c(O)c(c5c(nc6cc(C)ccn65)c4c3C2=O)NC(=O)/C(C)=C\C=C\[C@H](C)[C@H](O)[C@@H](C)[C@@H](O)[C@@H](C)[C@H](OC(C)=O)[C@@H]1C [Rifaximin]
- Cumulative Occurrences of Events [1]: 23
- Occurrences of Events [1]: 0
- Survival [1]: 0.8108
- Cumulative Occurrences of Events [2]: 6
- Occurrences of Events [2]: 6
- Survival [2]: 1.0000
- Cumulative Occurrences of Events [3]: 10
- Occurrences of Events [3]: 4
- Survival [3]: 0.9564
- Cumulative Occurrences of Events [4]: 15
- Occurrences of Events [4]: 5
- Survival [4]: 0.9258
- Cumulative Occurrences of Events [5]: 20
- Survival [5]: 0.8848
- Cumulative Occurrences of Events [6]: 23
- Occurrences of Events [6]: 3
- Survival [6]: 0.8403
- Cumulative Occurrences of Events [7]: 19
- Occurrences of Events [7]: 0
- Survival [7]: 0.8475
- Cumulative Occurrences of Events [8]: 4
- Occurrences of Events [8]: 4
- Survival [8]: 1.0000
- Cumulative Occurrences of Events [9]: 8
- Occurrences of Events [9]: 4
- Survival [9]: 0.9711
- Cumulative Occurrences of Events [10]: 12
- Occurrences of Events [10]: 4
- Survival [10]: 0.9411
- Cumulative Occurrences of Events [11]: 17
- Occurrences of Events [11]: 5
- Survival [11]: 0.9094
- Cumulative Occurrences of Events [12]: 19
- Occurrences of Events [12]: 2
- Survival [12]: 0.8665
- Cummulative number of events [13]: 4
- Number of events [13]: 4
- Probability of no HE-related hospitalization [13]: 1.0000
- Cummulative number of events [14]: 8
- Number of events [14]: 4
- Cummulative number of events [15]: 12
- Number of events [15]: 4
- Cummulative number of events [16]: 17
- Number of events [16]: 5
- Probability of no HE-related hospitalization [16]: 0.9094
- Cummulative number of events [17]: 19
- Number of events [17]: 2
- Cummulative number of events [18]: 19
- Number of events [18]: 0
- subjects with HE-related hospitalizations (of 140) (first study, rifaximin group): 19
- reduction in risk of hospitalization due to HE (HE-related) compared with placebo (first study, 6-month treatment period): 50%
- time to first HE related hospitalization vs placebo (FIG. 3, Kaplan Meier) (in vivo): increased time to hospitalization
